ChEMBL document CHEMBL1201862, “PubChem BioAssay data set” (2004)
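A five-concentration, 48-hour dose response in 96-well plates underlies each endpoint, interpolated linearly between surrounding concentrations. GI50 = concentration required for 50% inhibition of growth.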 Active and inactive are the calls of the source. Rule as the data show it: active = GI50 up to about 1.1 µM and inactive = higher.

Key:
Assay in all cases: growth of human tumour cells (NCI), 48 h
M14 = system: M14
T47D = system: T47D
MOLT-4 = system: MOLT-4
SK-OV-3 = system: SK-OV-3
HT-29 = system: HT-29
RXF 393 = system: RXF 393
Malme-3M = system: Malme-3M
KM12 = system: KM12
CCRF-CEM = system: CCRF-CEM
SF-539 = system: SF-539
COLO 205 = system: COLO 205
U-251 = system: U-251
SN12C = system: SN12C
OVCAR-8 = system: OVCAR-8
NCI-H23 = system: NCI-H23
RPMI-8226 = system: RPMI-8226
BT-549 = system: BT-549
TK-10 = system: TK-10
SR = system: SR
MCF7 = system: MCF7
HCT-15 = system: HCT-15
LOX IMVI = system: LOX IMVI
ACHN = system: ACHN
MDA-MB-231 = system: MDA-MB-231
HOP-62 = system: HOP-62
SK-MEL-2 = system: SK-MEL-2
PC-3 = system: PC-3
HL-60 = system: HL-60
K562 = system: K562
MDA-N = system: MDA-N
A498 = system: A498
HCC 2998 = system: HCC 2998
UACC-62 = system: UACC-62
SF-295 = system: SF-295
CAKI-1 = system: CAKI-1
UO-31 = system: UO-31
SW-620 = system: SW-620
IGROV-1 = system: IGROV-1
SF-268 = system: SF-268
OVCAR-4 = system: OVCAR-4
NCI-H226 = system: NCI-H226
MDA-MB-435 = system: MDA-MB-435
NCI-H522 = system: NCI-H522
EKVX = system: EKVX
OVCAR-5 = system: OVCAR-5
786-0 = system: 786-0
DU-145 = system: DU-145
HCT-116 = system: HCT-116
A549 = system: A549
SK-MEL-28 = system: SK-MEL-28
HOP-92 = system: HOP-92
SNB-75 = system: SNB-75
OVCAR-3 = system: OVCAR-3
Hs-578T = system: Hs-578T
SK-MEL-5 = system: SK-MEL-5
NCI/ADR-RES = system: NCI/ADR-RES
NCI-H460 = system: NCI-H460
UACC-257 = system: UACC-257
SNB-19 = system: SNB-19

Measured: GI50

c1ccc(C(OCCN2CC3CCC(C2)N3)c2ccccc2)cc1
47.6 µM: HCT-15
inactive: M14 17.1 µM | T47D 29.9 µM | MOLT-4 74.8 µM | SK-OV-3 > 100 µM | HT-29 31.6 µM | RXF 393 43.8 µM | Malme-3M 16 µM | KM12 54 µM | CCRF-CEM > 100 µM | SF-539 82.4 µM | COLO 205 19 µM | U-251 > 100 µM | SN12C > 100 µM | OVCAR-8 > 100 µM | NCI-H23 > 100 µM | RPMI-8226 34.1 µM | BT-549 22 µM | TK-10 > 100 µM | SR 31.6 µM | MCF7 48.6 µM | LOX IMVI 66.4 µM | ACHN > 100 µM | MDA-MB-231 > 100 µM | HOP-62 > 100 µM | SK-MEL-2 76.7 µM | PC-3 > 100 µM | HL-60 74.1 µM | K562 43.8 µM | MDA-N 26.4 µM | A498 74 µM | HCC 2998 17.8 µM | UACC-62 27.7 µM | SF-295 83 µM | CAKI-1 > 100 µM | UO-31 64 µM | SW-620 81.3 µM | IGROV-1 94.6 µM | SF-268 > 100 µM | OVCAR-4 > 100 µM | NCI-H226 45 µM | MDA-MB-435 35.9 µM | NCI-H522 35.2 µM | EKVX > 100 µM | OVCAR-5 > 100 µM | 786-0 41 µM | DU-145 > 100 µM | HCT-116 40.4 µM | A549 > 100 µM | SK-MEL-28 29.9 µM | HOP-92 18.3 µM | SNB-75 50.1 µM | OVCAR-3 45 µM | Hs-578T 75.9 µM | SK-MEL-5 18.5 µM | NCI/ADR-RES > 100 µM | NCI-H460 50.4 µM | UACC-257 22.7 µM | SNB-19 > 100 µM

Cc1ccc2c(n1)C(=O)c1cc(C)c(C)cc1C2=O
inactive: M14 > 100 µM | T47D 49.5 µM | MOLT-4 > 100 µM | SK-OV-3 > 100 µM | HT-29 36.9 µM | RXF 393 34 µM | Malme-3M 43.1 µM | KM12 53.2 µM | CCRF-CEM > 100 µM | SF-539 > 100 µM | COLO 205 32 µM | U-251 27.4 µM | SN12C 56.9 µM | OVCAR-8 54.3 µM | NCI-H23 > 100 µM | RPMI-8226 > 100 µM | BT-549 > 100 µM | TK-10 > 100 µM | SR 30.2 µM | MCF7 67 µM | LOX IMVI 68.4 µM | ACHN > 100 µM | MDA-MB-231 45.6 µM | HOP-62 > 100 µM | SK-MEL-2 > 100 µM | PC-3 > 100 µM | HL-60 36 µM | K562 68.7 µM | MDA-N > 100 µM | A498 > 100 µM | HCC 2998 98.2 µM | UACC-62 45.9 µM | SF-295 > 100 µM | CAKI-1 > 100 µM | UO-31 57.8 µM | SW-620 73.6 µM | IGROV-1 63.1 µM | SF-268 49.8 µM | OVCAR-4 70.3 µM | NCI-H226 > 100 µM | MDA-MB-435 85.3 µM | NCI-H522 20.6 µM | EKVX 50.8 µM | OVCAR-5 68.9 µM | 786-0 62.1 µM | DU-145 > 100 µM | HCT-116 47.6 µM | A549 64.9 µM | SK-MEL-28 > 100 µM | HOP-92 43.1 µM | SNB-75 27.5 µM | OVCAR-3 20.5 µM | Hs-578T 44.2 µM | SK-MEL-5 12.4 µM | NCI/ADR-RES 44 µM | NCI-H460 10.6 µM | UACC-257 30.4 µM | SNB-19 > 100 µM
75.9 µM: HCT-15

C=C(C)[C@H]1C[C@@H]2O[C@@](O)(/C(C)=C\C(=O)/C=C(/C)C[C@H]3OC(=O)[C@@]24O[C@H]34)[C@@H]1O
> 100 µM: HCT-15
inactive: M14 > 100 µM | T47D > 100 µM | MOLT-4 > 100 µM | SK-OV-3 > 100 µM | HT-29 > 100 µM | RXF 393 25.7 µM | Malme-3M > 100 µM | KM12 > 100 µM | CCRF-CEM > 100 µM | SF-539 > 100 µM | COLO 205 > 100 µM | U-251 > 100 µM | SN12C > 100 µM | OVCAR-8 > 100 µM | RPMI-8226 > 100 µM | BT-549 > 100 µM | TK-10 > 100 µM | SR 47.4 µM | MCF7 > 100 µM | LOX IMVI > 100 µM | ACHN > 100 µM | MDA-MB-231 > 100 µM | SK-MEL-2 > 100 µM | PC-3 > 100 µM | HL-60 > 100 µM | K562 > 100 µM | MDA-N > 100 µM | A498 > 100 µM | HCC 2998 > 100 µM | UACC-62 > 100 µM | SF-295 > 100 µM | CAKI-1 > 100 µM | SW-620 > 100 µM | IGROV-1 > 100 µM | SF-268 > 100 µM | OVCAR-4 > 100 µM | NCI-H226 > 100 µM | MDA-MB-435 > 100 µM | NCI-H522 > 100 µM | EKVX > 100 µM | OVCAR-5 > 100 µM | 786-0 > 100 µM | DU-145 > 100 µM | HCT-116 > 100 µM | A549 > 100 µM | SK-MEL-28 > 100 µM | HOP-92 > 100 µM | SNB-75 > 100 µM | OVCAR-3 > 100 µM | Hs-578T > 100 µM | SK-MEL-5 > 100 µM | NCI/ADR-RES > 100 µM | NCI-H460 > 100 µM | UACC-257 > 100 µM | SNB-19 > 100 µM

COC(=O)c1cc2c3c(c1)Oc1cc(C(=O)OC)cc4c1C3c1c(cc(C(=O)OC)cc1O4)O2
active: HT-29 0.802 µM | RXF 393 0.406 µM | NCI/ADR-RES 0.163 µM
inactive: M14 26.6 µM | T47D 20 µM | MOLT-4 7.41 µM | SK-OV-3 16.6 µM | Malme-3M 8.99 µM | KM12 10.1 µM | CCRF-CEM 11.4 µM | SF-539 15.1 µM | COLO 205 23.7 µM | U-251 12.3 µM | SN12C 32.7 µM | NCI-H23 25.1 µM | RPMI-8226 6.44 µM | BT-549 20.5 µM | TK-10 15.3 µM | SR 13.8 µM | MCF7 10.6 µM | LOX IMVI 5.92 µM | ACHN 11.7 µM | MDA-MB-231 17.1 µM | HOP-62 11.4 µM | SK-MEL-2 36.6 µM | PC-3 10.4 µM | HL-60 3.03 µM | K562 11.5 µM | MDA-N 8.22 µM | A498 > 76.2 µM | HCC 2998 31.8 µM | UACC-62 16.9 µM | SF-295 10.6 µM | CAKI-1 14 µM | UO-31 21 µM | SW-620 35 µM | IGROV-1 11.9 µM | SF-268 9.18 µM | OVCAR-4 34 µM | NCI-H226 3.82 µM | MDA-MB-435 9.68 µM | NCI-H522 3.19 µM | EKVX 16.4 µM | OVCAR-5 24.5 µM | 786-0 11 µM | DU-145 5.14 µM | HCT-116 18.6 µM | A549 12.6 µM | SK-MEL-28 34 µM | HOP-92 19.4 µM | SNB-75 5.81 µM | OVCAR-3 10.3 µM | Hs-578T 15.3 µM | SK-MEL-5 2.92 µM | NCI-H460 23.8 µM | UACC-257 27.4 µM | SNB-19 20 µM
> 32 µM: HCT-15
